Active and inactive are the calls of the source. How the calls were made is not given here.
Biological target: Peptidyl-prolyl cis-trans isomerase FKBP1A (Homo sapiens) (UniProt P62942)
Test: small-molecule binding to FKBP12 – biophysical, NMR detection (AID 608)
Details: purified FKBP12

Peptidyl-prolyl cis-trans isomerase FKBP1A (Homo sapiens), sequence (P62942 whole entry, looked up): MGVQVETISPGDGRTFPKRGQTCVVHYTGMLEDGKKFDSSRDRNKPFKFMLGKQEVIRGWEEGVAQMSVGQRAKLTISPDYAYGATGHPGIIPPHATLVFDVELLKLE

Structure (SMILES)	Kd
O=C1CC(=O)N(Cc2ccco2)C(=S)N1	> 4 mM (inactive)
Cc1ccccc1NC(=O)N1CCOCC1	> 4 mM (inactive)
Cc1ccc(N2CCN(C(=O)c3ccccc3)CC2)c(C)c1	> 4 mM (inactive)
O=C(Nc1ccc(F)cc1F)c1ccco1	> 4 mM (inactive)
COc1ccc(-c2cc(=O)c3c(OC)c(OC)c(OC)c(OC)c3o2)cc1OC	> 4 mM (inactive)
CCCCNS(=O)(=O)c1ccc(OCC(=O)N2CCOCC2)cc1	inactive
OCCN1CCN(C(=S)c2ccc(Cl)cc2)CC1	> 4 mM (inactive)
COc1ccc2c3c1O[C@H]1C[C@@H](O)C=C[C@@]31CCN(C)C2	> 4 mM (inactive)
Cc1ccccc1-n1c(-c2cccnc2)n[nH]c1=S	> 4 mM (inactive)
OCCNc1ccccn1	> 4 mM (inactive)
Cn1cc(Cl)c(C(=O)NC2CCCC2)n1	> 4 mM (inactive)
OCc1csc(-c2cccs2)n1	> 4 mM (inactive)
COC(=O)[C@@]1(C)CCC[C@]2(C)c3ccc(O)c(C(C)C)c3CCC12 (stereo not given in full)	> 4 mM (inactive)
CSc1nc(-c2ccccc2)ccc1C(N)=O	> 4 mM (inactive)
Cn1c(SCCC(=O)O)nnc1-c1cccnc1	> 4 mM (inactive)
Cc1ccc(NC(=O)N2CCC(C(N)=O)CC2)cc1	> 4 mM (inactive)
CN1CCN(c2nc3c(c(=O)[nH]2)CCCC3)CC1	> 4 mM (inactive)
Cc1cc(C(=O)N2CCN(c3ccccn3)CC2)no1	> 4 mM (inactive)
CN(C)C(=O)CSc1cccc2cccnc12	> 4 mM (inactive)
CC(Sc1ncn[nH]1)C(=O)O (stereo not given)	> 4 mM (inactive)

Structure (SMILES)	Kd
NCc1ccc(-c2csnn2)cc1	> 4 mM (inactive)
COc1ccccc1-c1cn[nH]c(=S)n1	> 4 mM (inactive)
Cc1nc2ccccc2c(=O)n1NC(=O)Nc1ccccc1	> 4 mM (inactive)
CC(=O)O[C@H]1C[C@@]2(C)[C@@H](C[C@@H](O)C3[C@]2(C)CC[C@H]2[C@H](C)[C@H](O)CC[C@]32C)/C1=C(/CCC=C(C)C)C(=O)O (stereo not given in full)	> 4 mM (inactive)
CC12CN([N+](=O)[O-])C3(C(N)=O)CC1CCC23C (stereo not given)	> 4 mM (inactive)
CC(=O)O[C@@H]1CC2C(C)(C)C=CC(=O)[C@]2(C)C2CC[C@@]3(C)[C@H](c4ccoc4)OC(=O)C4OC43[C@@]21C (stereo not given in full)	> 4 mM (inactive)
Cc1ccc(-c2nc(-c3cccnc3)no2)c(C)c1	> 4 mM (inactive)
O=C(NCc1ccco1)c1ccc(Br)s1	> 4 mM (inactive)
Cn1cc(Cl)c(C(=O)Nc2ccc(F)cc2F)n1	> 4 mM (inactive)
COc1c(O)cccc1O	> 4 mM (inactive)
Cc1ccc(-n2ncc(C#N)c2/N=C/N(C)C)cc1	> 4 mM (inactive)
OCc1cccc2nonc12	> 4 mM (inactive)
O=C(O)Cn1c(=O)sc2ccccc21	> 4 mM (inactive)
Oc1ccccc1N=Cc1cccnc1	> 4 mM (inactive)
O=c1c(-c2ccc(O)cc2)coc2cc(O)ccc12	> 4 mM (inactive)
O=S(=O)(c1cccc(Cl)c1)N1CCCC1	> 4 mM (inactive)
CNC(=S)N1CCN=C1Nc1nc(C)cc(C)n1	> 4 mM (inactive)
COC(=O)C(O)c1ccccc1 (stereo not given)	> 4 mM (inactive)
Cc1cc(=O)n2ccc(CN3CCOCC3)c(O)c2n1	> 4 mM (inactive)
CCOC(=O)c1csc(C2COc3ccccc3O2)n1 (stereo not given)	> 4 mM (inactive)

Structure (SMILES)	Kd
NCCNC(=S)Nc1ccccc1	> 4 mM (inactive)
CC(=O)c1c(C)nc(-c2cccs2)n1O	> 4 mM (inactive)
c1ccc(SCc2nc(-c3cccnc3)no2)cc1	> 4 mM (inactive)
CC(=O)O[C@@H]1c2c(ccc3ccc(=O)oc23)OC(C)(C)[C@@H]1OC(=O)CC(C)C	> 4 mM (inactive)
O=C(Nc1cccnc1)Nc1ccc2c(c1)OCO2	> 4 mM (inactive)
CCc1ccc(C(=O)N2CCCC2)s1	> 4 mM (inactive)
COc1ccc(NC(=O)c2ccc[n+]([O-])c2)cc1	> 4 mM (inactive)
O=C(O)C(Cc1cnc[nH]1)N1C(=O)c2ccccc2C1=O (stereo not given)	> 4 mM (inactive)
COc1c(O)cc(O)cc1O	> 4 mM (inactive)
Cc1cc(N)no1	> 4 mM (inactive)
CSc1nnc2[nH]c(=O)cc(N)n12	> 4 mM (inactive)
NC(=O)NC1NC(=O)NC1=O (stereo not given)	> 4 mM (inactive)
CCCCn1c(=O)cc(O)c2ccccc21	> 4 mM (inactive)
S=C(Nc1ccccc1)Nc1nncs1	> 4 mM (inactive)
CN(C)N1C(=O)C2CCCCC2C1=O (stereo not given)	> 4 mM (inactive)
Cn1nc(-c2cccs2)cc1N	> 4 mM (inactive)
O=C(O)c1ccc2[nH]c3c(c2c1)CSCC3	> 4 mM (inactive)
COc1ccc(C(=O)CC(=O)O)c2c1C=CC(C)(C)O2	> 4 mM (inactive)
CC1CCN(C(=O)c2cc3ccccc3o2)CC1	> 4 mM (inactive)
Cc1nc(-c2cnccn2)sc1C(=O)O	> 4 mM (inactive)
